Structures are written as SMILES.

Type in all cases: in vivo
One data set deals with nitrite/nitrate (NOx). Nature of the data set: Nitrite/nitrate level in blood, rats with TNBS-induced colitis. The settings on record: 1.11 mmol/kg, vs groups L and M, FIG. 34. Here is the method: Colonic inflammation was induced by intracolonic administration of TNBS (2,4,6-trinitrobenzenesulfonic acid) (40 mg/kg in 0.25 ml of 25% aqueous ethanol) through an 8-cm-long soft plastic catheter under transient diethylether anesthesia. In the sham-operated groups, only the vehicle for TNBS was administered. The animals were deprived of food, but not water, for 12 h before the enemas.
The levels of plasma nitrite/nitrate (NOx), stable end products of NO were measured by the Griess reaction. This assay depends on the reduction of nitrate to nitrite, which is then converted into a colored azo dye compound that is detected spectrophotometrically at 540 nm.
The above-described clinical studies were repeated with animals having colitis which was induced as described above. […] Two days after the enema the effects of the treatment were determined by measurement of body weight, blood gas analysis and biopsy. […] Surgery was performed to allow registration of the hemodynamic parameters at 1 h intervals for 6 h (cardiac output [CO] data were measured only at the end of the experiments). […] In addition, fluorescence confocal endomicroscopy was performed to examine the microvasculature and morphologic changes of the mucosa of the distal colon, and full-thickness tissue samples and venous blood samples were taken to determine the biochemical changes in the colon and plasma.

The nature of data set [1]: Body weight, rats with gastric injury without inflammation. The settings on record: 1.11 mmol/kg force-fed, one day after, FIG. 17. The protocol:
The medicinal activity of the compound according to the invention and the pharmaceutical composition according to the invention was tested in a series of experiments performed on rats. The experiments were performed on male Sprague-Dawley rats (280-320 g) housed in plastic cages in a thermoneutral environment (21° C.±2° C.) with a 12 h dark-light cycle. The animals, fed on a normal diet with tap water ad libitum, were randomly allocated into experimental groups according to the feeding protocols.
(§1) Further experiments regarding the effect of a compound of formula (I) and a pharmaceutical composition comprising a compound of formula (I), respectively, on gastric injury without inflammation were conducted on rats. 15 animals were randomly allocated into three groups. Group H (n=5) served as sham-operated controls. Samples of all animals were drawn on day 1 of the clinical tests. On day 2 the animals of group I (n=5) were force-fed acetylsalicylic acid (ASS) (1.11 mmol/kg body weight). […] Fluorescence confocal endomicroscopy was performed to examine the microvasculature and morphologic changes of the mucosa of the distal colon, and full-thickness tissue samples and venous blood samples were taken to determine the biochemical changes in the colon and plasma. The effects were determined by way of measurement of body weight, blood gas analysation and biopsy. […]

Data set [2] relates to xanthine oxidase enzyme. Briefly: Xanthine oxidase enzyme activity in tissue, mice with gastric injury without inflammation. As to conditions: gastric and duodenal tissue, 1.11 mmol/kg, vs control group A, FIGS. 6a/6b. The protocol:
(§2) The XOR activity was determined in the ultrafiltered, concentrated supernatant by fluorometric kinetic assay based on the conversion of pterine to isoxanthopterine in the presence (total XOR) or absence (xanthine oxidase activity) of the electron acceptor methylene blue.
First experiments regarding the effect of the compound of formula (I) and a pharmaceutical composition comprising the compound of formula (I) (clear aqueous solution of compound of formula (I) at pH 4.8), respectively, on gastric injury without inflammation were conducted on mice. 48 animals were randomly allocated into three groups. Group A (n=16) served as sham-operated controls. Samples of all animals were drawn on day 1 of the clinical tests. On day 2 the animals of group B (n=16) were force-fed acetylsalicylic acid (ASS) (1.11 mmol/kg body weight). Group C (n=16) was force-fed 1.11 mmol/kg body weight of the compound according to the invention. Group A only received the respective solvent (25% ethanol in water). One day after the gavage, additional samples were drawn. Fluorescence confocal endomicroscopy was performed to examine the microvasculature and morphologic changes of the mucosa of the distal colon, […] The effects were determined by way of measurement of body weight, blood gas analysation and biopsy. […]

Data set [3] deals with xanthine oxidase enzyme. Nature of the data set: Xanthine oxidase enzyme activity in tissue, rats with gastric injury without inflammation. As to conditions: gastric and colon tissue, 1.11 mmol/kg, vs control group H, FIGS. 24a/24b. Here is the method:
as §2
Further experiments regarding the effect of a compound of formula (I) and a pharmaceutical composition comprising a compound of formula (I), respectively, on gastric injury without inflammation were conducted on rats. 15 animals were randomly allocated into three groups. Group H (n=5) served as sham-operated controls. Samples of all animals were drawn on day 1 of the clinical tests. On day 2 the animals of group I (n=5) were force-fed acetylsalicylic acid (ASS) (1.11 mmol/kg body weight). Group K (n=5) was force-fed 1.11 mmol/kg body weight of the compound according to the invention. Group H only received the respective solvent (25% ethanol in water). One day after the gavage, additional samples were drawn. Fluorescence confocal endomicroscopy was performed to examine the microvasculature and morphologic changes of the mucosa of the distal colon, and full-thickness tissue samples and venous blood samples were taken to determine the biochemical changes in the colon and plasma. The effects were determined by way of measurement of body weight, blood gas analysation and biopsy. […]

For a further data set, the system named is TNF-α. Briefly: Plasma TNF-α level, rats with gastric injury without inflammation. As to conditions: one day after 1.11 mmol/kg, vs control group H, FIG. 21. The protocol:
Plasma TNF-α concentrations were determined in duplicate by means of a commercially available enzyme-linked immunosorbent assay (Quantikine ultrasensitive enzyme-linked immunosorbent assay kit for rat TNF-α; Biomedica Hungaria Kft, Budapest, Hungary). The minimum detectable level was less than 5 pg/ml, and the inter-assay and intra-assay coefficients of variation were less than 10%.
as §1, with “weight). Group K (n=5) was force-fed 1.11 mmol/kg body weight of the compound according to the invention.” for “weight).”

In the case of `CC(=O)Oc1ccccc1C(=O)O` [ASS, acetylsalicylic acid, reference compound], the “nitrite/nitrate level in the blood” value with nitrite/nitrate (NOx) is reported as “increased nitrite/nitrate level”. Besides, in data set [1], the “change in body weight” value is “severe loss of body weight”. Also, the “activity of xanthine oxidase enzyme” value in the data set on xanthine oxidase enzyme [2] and in the data set with xanthine oxidase enzyme [3] was “increased activity” each time. For the same compound, the “plasma TNF-α level” value with TNF-α is reported as “increase in the plasma TNF-α level”.

Consider `CC(=O)Oc1ccccc1C(=O)NC(CO)(CO)CO` [compound according to the invention], for which, in the data set with nitrite/nitrate (NOx), the “nitrite/nitrate level in the blood” value was “nitrite/nitrate levels comparable to those of healthy animals”. For the same compound, in data set [1], the “change in body weight” value is reported as “only showed a minor loss in body weight”. Moreover, the “activity of xanthine oxidase enzyme” value in the data set with xanthine oxidase enzyme [2] and in the data set with xanthine oxidase enzyme [3] was “no such increase” in each case. In addition, in the data set with TNF-α, the “plasma TNF-α level” value is “almost no change”.

These data come from patent US20160326098A1, “Pharmaceutically Active Compound for Use as Anti-inflammatory Agent” (Pax Forschung GmbH, priority 2013, published 2016).
